Our source for the IC50 values is paper PMC11677535, “Eremophilane- and Acorane-Type Sesquiterpenes from the Deep-Sea Cold-Seep-Derived Fungus Furcasterigmium furcatum CS-280 Cultured in the Presence of Autoclaved Pseudomonas aeruginosa QDIO-4” (Marine Drugs, 2024).

This test addresses T1, COX-2 (cyclooxygenase-2) (Homo sapiens, UniProt P35354).
T1 construct: gene PTGS2
T1 sequence (P35354 18-604): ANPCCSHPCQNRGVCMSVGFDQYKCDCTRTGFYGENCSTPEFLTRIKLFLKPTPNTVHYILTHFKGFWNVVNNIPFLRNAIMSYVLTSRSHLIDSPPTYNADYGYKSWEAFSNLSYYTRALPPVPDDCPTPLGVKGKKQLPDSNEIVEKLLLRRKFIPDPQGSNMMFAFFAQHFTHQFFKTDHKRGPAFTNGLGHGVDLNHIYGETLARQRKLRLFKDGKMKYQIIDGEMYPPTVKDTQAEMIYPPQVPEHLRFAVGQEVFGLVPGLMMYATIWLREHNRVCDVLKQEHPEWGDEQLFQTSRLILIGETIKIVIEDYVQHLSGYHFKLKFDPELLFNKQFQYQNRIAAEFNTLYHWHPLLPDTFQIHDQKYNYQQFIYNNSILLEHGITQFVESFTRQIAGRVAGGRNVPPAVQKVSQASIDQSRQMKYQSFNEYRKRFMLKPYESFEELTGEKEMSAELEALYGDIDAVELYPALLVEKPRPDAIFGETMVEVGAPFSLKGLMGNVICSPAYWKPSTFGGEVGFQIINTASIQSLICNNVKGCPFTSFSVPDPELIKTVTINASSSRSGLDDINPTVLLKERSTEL
Briefly: biochemical.

Regarding `CC(=O)O[C@H]1[C@@H](O)C=C2C[C@@]3(O)OC[C@@]4(C)O[C@]43C[C@]2(C)[C@H]1C` [compound 2, fureremophilane B], the IC50 was found to be 123 µM.
As to `CC(=O)O[C@H]1C=C2C[C@@]3(O)OC[C@@]4(C)O[C@]43C[C@]2(C)[C@@H](C)[C@H]1O` [compound 3, fureremophilane C], the IC50 stood at 93.4 µM.
